Measured values from patent US20240343727A1, “PYRIDAZINONE OR PYRIDINONE COMPOUNDS, PREPARATION METHODS AND USES THEREOF” (InventisBio Co., Ltd., priority 2021, published 2024).

Biological target: T1, PARP7 (Homo sapiens, UniProt Q7Z3E1)
T1 sequence (Q7Z3E1 1-657): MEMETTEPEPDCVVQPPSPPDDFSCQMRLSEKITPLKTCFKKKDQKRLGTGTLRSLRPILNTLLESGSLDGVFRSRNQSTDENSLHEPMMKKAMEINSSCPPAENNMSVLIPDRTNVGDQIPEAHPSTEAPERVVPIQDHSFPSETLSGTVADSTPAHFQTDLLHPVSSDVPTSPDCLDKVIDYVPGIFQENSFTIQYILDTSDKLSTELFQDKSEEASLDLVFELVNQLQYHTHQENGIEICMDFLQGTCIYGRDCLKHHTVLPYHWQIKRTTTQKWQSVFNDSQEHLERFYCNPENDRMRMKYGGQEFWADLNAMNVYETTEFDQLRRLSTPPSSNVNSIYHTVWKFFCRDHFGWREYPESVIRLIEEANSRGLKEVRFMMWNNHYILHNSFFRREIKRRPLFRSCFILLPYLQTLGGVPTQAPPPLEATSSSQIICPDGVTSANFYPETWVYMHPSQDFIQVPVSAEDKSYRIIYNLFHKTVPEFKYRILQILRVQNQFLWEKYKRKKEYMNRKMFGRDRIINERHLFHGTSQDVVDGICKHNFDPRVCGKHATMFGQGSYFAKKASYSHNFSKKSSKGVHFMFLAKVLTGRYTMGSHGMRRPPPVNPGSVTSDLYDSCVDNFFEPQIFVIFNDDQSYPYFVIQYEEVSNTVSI
Assay: PARP7 TR-FRET assay (binding, displacement of biotinylated Probe A)
Conditions: 6 nM PARP7, 2 nM Probe A, 25° C., 30 min
Procedure: Biological Assay Example A: PARP7 TR-FRET Assay
A time-resolved fluorescence energy transfer (TR-FRET) assay was used to test binding activity of compounds to PARP7. Two microliter test compound was added in 384-well plate. Reactions were performed in a 6 uL volume by adding 4 uL mixture of PARP7 and Probe A (a biotinylated probe binding to the PARP7: N-(6-(2-(4-((2-(6-oxo-5-(trifluoromethyl)-1,6-dihydropyridazin-4-yl) isoindolin-5-yl) oxy) piperidin-1-yl) acetamido) hexyl)-5-((3aS,4S,6aR)-2-oxohexahydro-1H-thieno [3,4-d]imidazol-4-yl) pentanamide, made as reported in WO2019212937A1) in assay buffer (20 mM HEPES pH 8.0, 100 mM NaCl, 0.1% BSA, 2 mM DTT and 0.002% Tween20). The final concentration of PARP7 and Probe A were 6 nM and 2 nM, incubating with test compounds at 25° C. for 30 min. Four microliter ULight-anti 6xHis and LANCE Eu-W1024 labeled streptavidin (PerkinElmer) were added with the final concentration of ULight-anti 6xHis and LANCE Eu-W1024 at 4 nM and 0.25 nM. The reaction mixture was incubated at 25° C. for 30 min. The plate was read on a Tecan Spark plate reader (excitation wavelength at 320 nm, emission wavelength at 615 nm and 665 nm with a 90 us delay. The ratio of the 665/615 nm emission was calculated for each well to the amount of complex of PARP7 and Probe A in each well was calculated. The 0.25% DMSO vehicle was used as control and no PARP7 well was as blank well. Inhibition rate is calculated with the formula of % inhibition=100-100*(TRFcmpd-TRFblank)/(TRFcontrol−TRFblank). Inhibition IC50 is calculated with the equation of Y=Bottom+ (Top-Bottom)/(1+10^((LogIC50−X) *Hill Slope))

SMILES | IC50 [nM]
N#Cc1ccc(N2CCN(C(=O)CC3CN(c4cc(C(F)(F)F)c(=O)[nH]n4)c4ccccc4O3)CC2)nc1 (single isomer, unassigned) [Compound 222] | 100 to 1000
N#Cc1ccc(N2CCN(C(=O)CC3CN(c4cc(C(F)(F)F)c(=O)[nH]n4)c4cc(Cl)ccc4O3)CC2)nc1 (single isomer, unassigned) [Compound 225] | 100 to 1000
O=C(CC1CN(c2cc(C(F)(F)F)c(=O)[nH]n2)c2cc(C(F)F)ccc2O1)N1CCN(c2ncc(C(F)(F)F)cn2)CC1 (single isomer, unassigned) [Compound 227] | < 100
O=C(CC1CN(c2n[nH]c(=O)c3cc(Cl)cc(F)c23)CCO1)N1CCN(c2ncc(C(F)(F)F)cn2)CC1 (single isomer, unassigned) [Compound 241] | > 1000
O=C(CC1CN(c2cc(C(F)(F)F)c(=O)[nH]n2)c2ccccc2O1)N1CCN(c2ncc(C(F)F)cn2)CC1 (single isomer, unassigned) [Compound 249] | 100 to 1000
N#Cc1cnc(N2CCN(C(=O)CC3CN(c4cc(C(F)(F)F)c(=O)[nH]n4)c4ccccc4O3)CC2)nc1 (single isomer, unassigned) [Compound 250] | < 100
N#Cc1cnc(N2CCN(C(=O)CC3CN(c4cc(C(F)(F)F)c(=O)[nH]n4)c4ccccc4O3)CC2)nc1 (single isomer, unassigned) [Compound 251] | 100 to 1000
O=C(CC1CN(c2n[nH]c(=O)c3ccc(N4CCCC4)cc23)CCO1)N1CCN(c2ncc(C(F)(F)F)cn2)CC1 (single isomer, unassigned) [Compound 258] | < 100
O=C(CC1CN(c2cc(C(F)(F)F)c(=O)[nH]n2)c2ccccc2O1)N1CCN(c2ccc(Cl)cn2)CC1 (single isomer, unassigned) [Compound 260] | 100 to 1000
O=C(CC1CN(c2cc(C(F)(F)F)c(=O)[nH]n2)c2ccccc2O1)N1CCN(c2ccc(Cl)cn2)CC1 (single isomer, unassigned) [Compound 261] | < 100
O=C(CC1CN(c2cc(C(F)(F)F)c(=O)[nH]n2)c2ccccc2O1)N1CCN(c2cnc(C(F)(F)F)cn2)CC1 (single isomer, unassigned) [Compound 263] | 100 to 1000
N#Cc1cnc(N2CCN(C(=O)CC3CN(c4cc(C(F)(F)F)c(=O)[nH]n4)c4cc(F)ccc4O3)CC2)nc1 (single isomer, unassigned) [Compound 264] | < 100
N#Cc1cnc(N2CCN(C(=O)CC3CN(c4cc(C(F)(F)F)c(=O)[nH]n4)c4cc(F)ccc4O3)CC2)nc1 (single isomer, unassigned) [Compound 265] | 100 to 1000
COCc1ccc2c(c1)N(c1cc(C(F)(F)F)c(=O)[nH]n1)CC(CC(=O)N1CCN(c3ncc(C(F)(F)F)cn3)CC1)O2 (single isomer, unassigned) [Compound 267] | < 100
O=C(CC1CN(c2cc(C(F)(F)F)c(=O)[nH]n2)c2cc(N3CCOCC3=O)ccc2O1)N1CCN(c2ncc(C(F)(F)F)cn2)CC1 (single isomer, unassigned) [Compound 281] | < 100
O=C(CC1CN(c2cc(C(F)(F)F)c(=O)[nH]n2)c2cc(N3CCOCC3=O)ccc2O1)N1CCN(c2ncc(C(F)(F)F)cn2)CC1 (single isomer, unassigned) [Compound 282] | < 100
COCC(=O)Nc1ccc2c(c1)N(c1cc(C(F)(F)F)c(=O)[nH]n1)CC(CC(=O)N1CCN(c3ncc(C(F)(F)F)cn3)CC1)O2 (single isomer, unassigned) [Compound 283] | < 100
O=C(CC1CN(c2cc(C(F)(F)F)c(=O)[nH]n2)c2ccccc2O1)N1CCN(c2ccc(C3CC3)cn2)CC1 (single isomer, unassigned) [Compound 285] | < 100
O=C(CC1CN(c2cc(C(F)(F)F)c(=O)[nH]n2)c2ccccc2O1)N1CCN(c2nnc(C(F)(F)F)s2)CC1 (single isomer, unassigned) [Compound 287] | 100 to 1000
O=C(CC1CN(c2cc(C(F)(F)F)c(=O)[nH]n2)c2ccccc2O1)N1CCn2c(nnc2C(F)(F)F)C1 (single isomer, unassigned) [Compound 289] | > 1000

The remaining lines, values ahead:

IC50 [nM] | SMILES
< 100 | N#Cc1ccc(N2CCN(C(=O)CC3CN(c4cc(C(F)(F)F)c(=O)[nH]n4)c4cc(Cl)ccc4O3)CC2)nc1 (single isomer, unassigned) [Compound 224]
< 100 | O=C(CC1CN(c2cc(C(F)(F)F)c(=O)[nH]n2)c2cc(C(F)F)ccc2O1)N1CCN(c2ncc(C(F)(F)F)cn2)CC1 (single isomer, unassigned) [Compound 228]
100 to 1000 | N#Cc1ccc(N2CCN(C(=O)CC3CN(c4cc(C(F)(F)F)c(=O)[nH]n4)c4cc(C#N)ccc4O3)CC2)nc1 (single isomer, unassigned) [Compound 230]
< 100 | C#Cc1cnc(N2CCN(C(=O)CC3CN(c4cc(C(F)(F)F)c(=O)[nH]n4)c4cc(C#N)ccc4O3)CC2)nc1 (single isomer, unassigned) [Compound 235]
100 to 1000 | O=C(CC1CN(c2n[nH]c(=O)c3cc(Cl)cc(F)c23)CCO1)N1CCN(c2ncc(C(F)(F)F)cn2)CC1 (single isomer, unassigned) [Compound 240]
100 to 1000 | N#Cc1ccc2c(=O)[nH]nc(N3CCOC(CC(=O)N4CCN(c5ncc(C(F)(F)F)cn5)CC4)C3)c2c1 (single isomer, unassigned) [Compound 244]
< 100 | N#Cc1ccc2c(=O)[nH]nc(N3CCOC(CC(=O)N4CCN(c5ncc(C(F)(F)F)cn5)CC4)C3)c2c1 (single isomer, unassigned) [Compound 245]
< 100 | O=C(CC1CN(c2cc(C(F)(F)F)c(=O)[nH]n2)c2ccccc2O1)N1CCN(c2ccc(C(F)(F)F)cn2)CC1 (single isomer, unassigned) [Compound 246]
100 to 1000 | O=C(CC1CN(c2cc(C(F)(F)F)c(=O)[nH]n2)c2ccccc2O1)N1CCN(c2ccc(C(F)(F)F)cn2)CC1 (single isomer, unassigned) [Compound 247]
< 100 | O=C(CC1CN(c2cc(C(F)(F)F)c(=O)[nH]n2)c2ccccc2O1)N1CCN(c2ncc(C(F)F)cn2)CC1 (single isomer, unassigned) [Compound 248]
< 100 | Cn1ccc(-c2ccc3c(=O)[nH]nc(N4CCOC(CC(=O)N5CCN(c6ncc(C(F)(F)F)cn6)CC5)C4)c3c2)n1 (single isomer, unassigned) [Compound 259]
< 100 | O=C(CC1CN(c2cc(C(F)(F)F)c(=O)[nH]n2)c2ccccc2O1)N1CCN(c2cnc(C(F)(F)F)cn2)CC1 (single isomer, unassigned) [Compound 262]
< 100 | N#Cc1ccc(N2CCN(C(=O)CC3CN(c4cc(C(F)(F)F)c(=O)[nH]n4)c4cc(F)ccc4O3)CC2)nc1 (single isomer, unassigned) [Compound 268]
100 to 1000 | N#Cc1ccc(N2CCN(C(=O)CC3CN(c4cc(C(F)(F)F)c(=O)[nH]n4)c4cc(F)ccc4O3)CC2)nc1 (single isomer, unassigned) [Compound 269]
< 100 | CS(=O)(=O)Cc1ccc2c(c1)N(c1cc(C(F)(F)F)c(=O)[nH]n1)CC(CC(=O)N1CCN(c3ncc(C(F)(F)F)cn3)CC1)O2 (single isomer, unassigned) [Compound 270]
< 100 | CS(=O)(=O)Cc1ccc2c(c1)N(c1cc(C(F)(F)F)c(=O)[nH]n1)CC(CC(=O)N1CCN(c3ncc(C(F)(F)F)cn3)CC1)O2 (single isomer, unassigned) [Compound 271]
100 to 1000 | COCC(=O)Nc1ccc2c(c1)N(c1cc(C(F)(F)F)c(=O)[nH]n1)CC(CC(=O)N1CCN(c3ncc(C(F)(F)F)cn3)CC1)O2 (single isomer, unassigned) [Compound 284]
> 1000 | O=C(CC1CN(c2cc(C(F)(F)F)c(=O)[nH]n2)c2ccccc2O1)N1CCN(c2ccc(C3CC3)cn2)CC1 (single isomer, unassigned) [Compound 286]
> 1000 | O=C(CC1CN(c2cc(C(F)(F)F)c(=O)[nH]n2)c2ccccc2O1)N1CCN(c2nnc(C(F)(F)F)s2)CC1 (single isomer, unassigned) [Compound 288]
